Where two headings read alike, the source gives them in different places.

Consider four compounds from PMC9866728, “Dosing Methods to Enable Cell-Based In Vitro Testing of Complex Substances: A Case Study with a PAH Mixture” (Toxics, 2022).

The conditions of data set [1]: O-ring loading rate constant, larger O-rings; ref Smith et al. 2010 [24]; cited from earlier work.
The conditions of data set [2]: Table S1; ref PubChem; cited from earlier work.
A short description of data set [3]: Recovery over time from exposure to cell culture media without cells (GC-MS/MS). Format: physicochemical.
For data set [4] the following is noted: Smith et al. O-Rings; ref Smith et al. 2010 [24]; cited from earlier work.
Data set [5] can be described thus: Loading kinetics of silicone micro-O-rings from methanol PAH solution (GC-MS/MS). Format: physicochemical.
Where [6] appears, read: MAF (400 ng/mL each PAH), one phase decay fit of nominal recovery.
The mark [7] stands for this setting: MAF (400 ng/mL each PAH), one phase decay fit of nominal recovery (text: ng/mL).
The mark [8] stands for this setting: O-Rings (loaded in 10 µg/mL PAH solution), one phase association fit of nominal recovery.
Setting [9] is: O-Rings, one phase association fit.
The mark [10] stands for this setting: O-Rings, one phase association fit (desorption into media).
[11] abbreviates: Solvent Extract (DMSO, 15 ng/mL each PAH), one phase decay fit of nominal recovery.
[12] abbreviates: Solvent Extract (DMSO, 15 ng/mL each PAH), one phase decay fit of nominal recovery (text: ng/mL).
[13] abbreviates: Solvent Extract, one phase decay fit.
The mark [14] stands for this setting: loading rate constant, one-phase association (h^-1), 10 µg/mL PAH mix in methanol.
[15] abbreviates: one-phase association fit of nominal Csilicone (µg/mL per Eq 1), 10 µg/mL PAH mix in methanol.
The mark [16] stands for this setting: one-phase association fit of nominal Csilicone, 10 µg/mL PAH mix in methanol, 0-24 h.
Where [17] appears, read: one-phase association fit, micro-O-ring absorption.

Turning to `c1ccc2cc3ccccc3cc2c1` [Anthracene], in data set [1], the “Smith et al. 2010 K Value” is given as 1.82. Moreover, the “LogKow (PubChem)” value in data set [2] is given as 4.45. In addition, the Y0 in data set [3] (setting [6]) is 398.5; in data set [3] (setting [8]), -0.1844; in data set [3] (setting [11]), 14.66; in data set [5] (setting [16]), 0. The figures for the Plateau in data set [3] (setting [7]), in data set [3] (setting [8]) and in data set [3] (setting [12]) were 49.04, 0.3725 and 2.703, respectively. The K in data set [3] (MAF, one phase decay fit) is 0.9206; in data set [3] (setting [10]) it was 4.022; in data set [3] (setting [13]) it was 0.5624; in data set [4], 2.3. Further, the Span in data set [3] (MAF, one phase decay fit) came out at 349.4; in data set [3] (setting [9]) it was 0.5569; in data set [3] (setting [13]), 11.96. Also, the Tau in data set [3] (MAF, one phase decay fit) is 1.086; in data set [3] (setting [9]) it was 0.2486; in data set [3] (setting [13]), 1.778. Moreover, the Half-time in data set [3] (setting [9]) amounted to 0.1723. Further, the “K Value” in data set [5] (setting [14]) was 27.2512. Moreover, in data set [5] (setting [15]), the “Plateau Value” is recorded as 0.255. The “Half-time Value” in data set [5] (setting [17]) came out at 0.02544. Also, in data set [5] (setting [17]), the “Span Value” was found to be 0.255. For the same compound, the “Tau Value” in data set [5] (setting [17]) worked out at 0.0367.
For `c1ccc2c(c1)cc1ccc3cccc4ccc2c1c34` [Benzo[a]pyrene], the “Smith et al. 2010 K Value” in data set [1] is 1.32. The “LogKow (PubChem)” value in data set [2] is on record as 6.13. The Y0 is 391.4 in data set [3] (setting [6]), 0.02292 in data set [3] (setting [8]), 15.28 in data set [3] (setting [11]) and 0 in data set [5] (setting [16]). In addition, the Plateau in data set [3] (setting [7]) is reported as 203.9; in data set [3] (setting [8]), 1.337; in data set [3] (setting [12]) it was 6.176. Besides, the K in data set [3] (MAF, one phase decay fit) is reported as 0.5026; in data set [3] (setting [10]) it was 0.418; in data set [3] (setting [13]), 0.1275; in data set [4], 0.57. The Span stood at 187.5 in data set [3] (MAF, one phase decay fit); 1.314 in data set [3] (setting [9]); 9.105 in data set [3] (setting [13]). Moreover, the Tau came out at 1.989 in data set [3] (MAF, one phase decay fit); 2.392 in data set [3] (setting [9]); 7.845 in data set [3] (setting [13]). For the same compound, the Half-time in data set [3] (setting [9]) is recorded as 1.658. For the same compound, the “K Value” in data set [5] (setting [14]) stood at 33.8629. Also, the “Plateau Value” in data set [5] (setting [15]) was 0.1047. In addition, the “Half-time Value” in data set [5] (setting [17]) came out at 0.02047. Also, the “Span Value” in data set [5] (setting [17]) is on record as 0.1047. For the same compound, the “Tau Value” in data set [5] (setting [17]) is 0.02953.
Take `c1ccc2c(c1)-c1cccc3cccc-2c13` [Fluoranthene]: the “Smith et al. 2010 K Value” in data set [1] was 1.41. For the same compound, the “LogKow (PubChem)” value in data set [2] is recorded as 5.16. Besides, the Y0 in data set [3] (setting [6]) is recorded as 391.9; in data set [3] (setting [8]) it was -0.1202; in data set [3] (setting [11]), 14.59; in data set [5] (setting [16]) it was 0. Moreover, the Plateau is 86.09 in data set [3] (setting [7]), 0.9705 in data set [3] (setting [8]) and 2.835 in data set [3] (setting [12]). For the same compound, the K in data set [3] (MAF, one phase decay fit) is reported as 0.2998; in data set [3] (setting [10]), 1.167; in data set [3] (setting [13]), 0.372; in data set [4], 0.93. In addition, the Span is 305.9 in data set [3] (MAF, one phase decay fit); 1.091 in data set [3] (setting [9]); 11.75 in data set [3] (setting [13]). In addition, the Tau in data set [3] (MAF, one phase decay fit) worked out at 3.336; in data set [3] (setting [9]), 0.857; in data set [3] (setting [13]) it was 2.688. This compound also gave a Half-time in data set [3] (setting [9]) of 0.594. The “K Value” in data set [5] (setting [14]) is listed as 23.4013. In addition, the “Plateau Value” in data set [5] (setting [15]) stood at 0.3327. For the same compound, the “Half-time Value” in data set [5] (setting [17]) came to 0.02962. Moreover, the “Span Value” in data set [5] (setting [17]) amounted to 0.3327. Moreover, the “Tau Value” in data set [5] (setting [17]) is 0.04273.
Turning to `c1cc2ccc3cccc4ccc(c1)c2c34` [Pyrene], in data set [1], the “Smith et al. 2010 K Value” is given as 1.35. Also, the Half-time in data set [3] is reported as 0.6521. For the same compound, the K in data set [4] was 1.04. Moreover, in data set [5], the “Half-time Value” worked out at 0.03121, the “K Value” stood at 22.209, the “Plateau Value” worked out at 0.4017 and the “Span Value” is listed as 0.4017. Also, in data set [5], the “Tau Value” is given as 0.04503 and the Y0 is listed as 0.
